{
  "source": "patent US12344610B2",
  "about": "“APOL1 inhibitors and methods of use” (Maze Therapeutics, Inc., priority 2022, dated 2025)",
  "data": [
    {"target": "T1, APOL1 G2 (Homo sapiens, UniProt O14791, DEL388-389)", "T1 construct": "expressed in transfected cells; host or cells: HEK293 T-REx clonal line stably expressing GCaMP6f (HEK T-REx/GCaMP6f/APOL1 G2 K6.3), doxycycline induced", "T1 sequence (O14791 with tags, fused parts or gaps DEL388-389)": "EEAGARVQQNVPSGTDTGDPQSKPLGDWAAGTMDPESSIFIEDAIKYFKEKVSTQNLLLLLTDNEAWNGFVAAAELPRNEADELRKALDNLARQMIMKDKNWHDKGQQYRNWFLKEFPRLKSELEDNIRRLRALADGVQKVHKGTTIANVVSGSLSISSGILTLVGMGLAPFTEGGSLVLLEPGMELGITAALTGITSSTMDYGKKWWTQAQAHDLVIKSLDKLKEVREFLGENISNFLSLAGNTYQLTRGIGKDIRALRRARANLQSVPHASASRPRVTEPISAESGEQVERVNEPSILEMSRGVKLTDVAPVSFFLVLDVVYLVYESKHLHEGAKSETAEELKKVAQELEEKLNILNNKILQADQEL", "test": "APOL1-mediated calcium transport (calcium influx) assay, HEK T-REx/GCaMP6f/APOL1 G2 K6.3 cells, FLIPR TETRA", "format": "cell-based", "conditions": "prevention of calcium influx; geometric mean of at least 2 assay runs; † = average of a technical replicate from a single assay run", "in_short": "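A HEK293 T-REx clone stably expressing GCaMP6f had APOL1 G2 induced with doxycycline (20 ng/mL solution added) for 6 h. Cells were then washed into Ca2+-free Tyrode's buffer (pH 7.4) and preincubated with compounds (duplicate 8-point) for 10 min at room temperature. Ca2+ injection to 5 mM final produced FLIPR GCaMP fluorescence, giving AC50 for influx inhibition (geometric mean, ≥2 runs).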", "units": {"AC50": "µM"}, "values": [
      {"smiles": "CC(c1ccc(OCCN2CCC3(CC2)C(=O)Nc2ccc(Cl)cc23)cc1)S(C)(=O)=O", "note": "(single isomer, unassigned) [Compound 39, 5-chloro-1′-(2-{4-[(1S) or (1R)-1-methanesulfonylethyl]phenoxy}ethyl)-1,2-dihydrospiro[indole-3,4′-piperidin]-2-one]", "AC50": 0.745},
      {"smiles": "O=C1CCc2cc(OCCN3CCC4(CC3)C(=O)Nc3ccc(Cl)cc34)cnc2N1[C@H]1C[C@@H](CO)C1", "note": "(single isomer, unassigned) [Compound 319, 5-chloro-1′-[2-({7-oxo-8-[(cis)-3-(hydroxymethyl)cyclobutyl]-5,6,7,8-tetrahydro-1,8-naphthyridin-3-yl}oxy)ethyl]-1,2-dihydrospiro[indole-3,4′-piperidin]-2-one]", "AC50": 0.378},
      {"smiles": "CC[C@]1(O)C[C@@H](N2C(=O)CCc3cc(OCCN4CCC5(CC4)C(=O)Nc4ccc(Cl)cc45)cnc32)C1", "note": "(single isomer, unassigned) [Compound 321, 5-chloro-1′-[2-({7-oxo-8-[(cis)-3-ethyl-3-hydroxycyclobutyl]-5,6,7,8-tetrahydro-1,8-naphthyridin-3-yl}oxy)ethyl]-1,2-dihydrospiro[indole-3,4′-piperidin]-2-one]", "AC50": 0.621},
      {"smiles": "CC1(O)CC(CN2C(=O)CCc3cc(OCCN4CCC5(CC4)C(=O)Nc4ccc(Cl)cc45)cnc32)C1", "note": "(single isomer, unassigned) [Compound 322, 5-chloro-1′-{2-[(7-oxo-8-{[(trans) or (cis)-3-hydroxy-3-methylcyclobutyl]methyl}-5,6,7,8-tetrahydro-1,8-naphthyridin-3-yl)oxy]ethyl}-1,2-dihydrospiro[indole-3,4′-piperidin]-2-one]", "AC50": 0.588},
      {"smiles": "C[C@]1(O)C[C@@H](n2ncc3cc(OCCN4CCC5(CC4)C(=O)Nc4ccc(Cl)cc45)cnc32)C1", "note": "(single isomer, unassigned) [Compound 357, 5-chloro-1′-[2-({1-[(cis)-3-hydroxy-3-methylcyclobutyl]-1H-pyrazolo[3,4-b]pyridin-5-yl}oxy)ethyl]-1,2-dihydrospiro[indole-3,4′-piperidin]-2-one]", "AC50": 0.412},
      {"smiles": "CC1(O)CC(c2ncc(OCCN3CCC4(CC3)C(=O)Nc3ccc(Cl)cc34)cn2)C1", "note": "(single isomer, unassigned) [Compound 393, 5-chloro-1′-[2-({2-[(cis) or (trans)-3-hydroxy-3-methylcyclobutyl]pyrimidin-5-yl}oxy)ethyl]-1,2-dihydrospiro[indole-3,4′-piperidin]-2-one]", "AC50": 1.06},
      {"smiles": "C[C@]1(O)C[C@H](n2ncc3cc(OCCN4CCC5(CC4)C(=O)Nc4ccc(Cl)cc45)cnc32)C1", "note": "(single isomer, unassigned) [Compound 408, 5-chloro-1′-[2-({1-[(trans)-3-hydroxy-3-methylcyclobutyl]-1H-pyrazolo[3,4-b]pyridin-5-yl}oxy)ethyl]-1,2-dihydrospiro[indole-3,4′-piperidin]-2-one]", "AC50": 0.283},
      {"smiles": "C[C@]1(O)C[C@@H](N2C(=O)CCc3cc(OCCN4CCC5(CC4)C(=O)Nc4ccc(OC(F)F)cc45)cnc32)C1", "note": "[Cmpd 325, 5-(difluoromethoxy)-1′-[2-({7-oxo-8-[(cis)-3-hydroxy-3-methylcyclobutyl]-5,6,7,8-tetrahydro-1,8-naphthyridin-3-yl}oxy)ethyl]-1,2-dihydrospiro[indole-3,4′-piperidin]-2-one]", "AC50": 0.791},
      {"smiles": "CC(c1ncc(OCCN2CCC3(CC2)C(=O)Nc2ccc(Cl)cc23)cn1)S(C)(=O)=O", "note": "(stereo not shown) [Compound 1, 5-Chloro-1′-(2-{[2-(1-methanesulfonylethyl)pyrimidin-5-yl]oxy}ethyl)-1,2-dihydrospiro[indole-3,4′-piperidin]-2-one]", "AC50": 0.703},
      {"smiles": "CS(=O)(=O)C1(c2ncc(OCCN3CCC4(CC3)C(=O)Nc3ccc(Cl)cc34)cn2)CC1", "note": "[Compound 4, 5-chloro-1′-(2-{[2-(1-methanesulfonylcyclopropyl)pyrimidin-5-yl]oxy}ethyl)-1,2-dihydrospiro[indole-3,4′-piperidin]-2-one]", "AC50": 0.67},
      {"smiles": "Cc1nc(-c2ccc(OCCN3CCC4(CC3)C(=O)N(C)c3ccccc34)cc2)no1", "note": "[Compound 35, 1-methyl-1′-{2-[4-(5-methyl-1,2,4-oxadiazol-3-yl)phenoxy]ethyl}-1,2-dihydrospiro[indole-3,4′-piperidin]-2-one]", "AC50": 0.142},
      {"smiles": "CC(=O)N1CCCc2cc(OCCN3CCC4(CC3)C(=O)N(C)c3ccccc34)ccc21", "note": "[Compound 36, 1′-{2-[(1-acetyl-1,2,3,4-tetrahydroquinolin-6-yl)oxy]ethyl}-1-methyl-1,2-dihydrospiro[indole-3,4′-piperidin]-2-one]", "AC50": 0.223},
      {"smiles": "CS(=O)(=O)c1c(F)cc(OCCN2CCC3(CC2)C(=O)Nc2ccccc23)cc1F", "note": "[Compound 42, 1′-[2-(3,5-difluoro-4-methanesulfonylphenoxy)ethyl]-1,2-dihydrospiro[indole-3,4′-piperidin]-2-one]", "AC50": 0.316},
      {"smiles": "O=C1Nc2ccc(Cl)cc2C12CCN(CCOc1ccc(S(=O)(=O)C3CC3)cc1)CC2", "note": "[Compound 43, 5-chloro-1′-{2-[4-(cyclopropanesulfonyl)phenoxy]ethyl}-1,2-dihydrospiro[indole-3,4′-piperidin]-2-one]", "AC50": 0.507},
      {"smiles": "O=C1Nc2ccccc2C12CCN(CCOc1ccc(S(=O)(=O)C(F)F)cc1)CC2", "note": "[Compound 44, 1′-[2-(4-difluoromethanesulfonylphenoxy)ethyl]-1,2-dihydrospiro[indole-3,4′-piperidin]-2-one]", "AC50": 0.352},
      {"smiles": "NC(=O)c1ccc(OCCN2CCC3(CC2)C(=O)Nc2ccc(Cl)cc23)cc1", "note": "[Compound 45, 4-(2-{5-chloro-2-oxo-1,2-dihydrospiro[indole-3,4′-piperidin]-1′-yl}ethoxy)benzamide]", "AC50": 0.746},
      {"smiles": "NC(=O)c1ccc(OCCN2CCC3(CC2)C(=O)Nc2ccc(Cl)cc23)cc1F", "note": "[Compound 46, 4-(2-{5-chloro-2-oxo-1,2-dihydrospiro[indole-3,4′-piperidin]-1′-yl}ethoxy)-2-fluorobenzamide]", "AC50": 0.434},
      {"smiles": "Cc1cc(OCCN2CCC3(CC2)C(=O)Nc2ccc(Cl)cc23)ccc1C(N)=O", "note": "[Compound 49, 4-(2-{5-chloro-2-oxo-1,2-dihydrospiro[indole-3,4′-piperidin]-1′-yl}ethoxy)-2-methylbenzamide]", "AC50": 0.875},
      {"smiles": "CS(=O)(=O)c1ccc(OCCN2CCC3(CC2)C(=O)Nc2ccc(Cl)cc23)cc1C#N", "note": "[Compound 50, 5-(2-{5-chloro-2-oxo-1,2-dihydrospiro[indole-3,4′-piperidin]-1′-yl}ethoxy)-2-methanesulfonylbenzonitrile]", "AC50": 0.622},
      {"smiles": "CS(=O)(=O)N1CCCc2cc(OCCN3CCC4(CC3)C(=O)Nc3ccc(Cl)cc34)ccc21", "note": "[Compound 53, 5-chloro-1′-{2-[(1-methanesulfonyl-1,2,3,4-tetrahydroquinolin-6-yl)oxy]ethyl}-1,2-dihydrospiro[indole-3,4′-piperidin]-2-one]", "AC50": 0.838},
      {"smiles": "CC(=O)N1CCCc2cc(OCCN3CCC4(CC3)C(=O)Nc3ccc(Cl)cc34)ccc21", "note": "[Compound 56, 1′-{2-[(1-acetyl-1,2,3,4-tetrahydroquinolin-6-yl)oxy]ethyl}-5-chloro-1,2-dihydrospiro[indole-3,4′-piperidin]-2-one]", "AC50": 1.01},
      {"smiles": "CC(=O)N1Cc2ccc(OCCN3CCC4(CC3)C(=O)Nc3ccc(Cl)cc34)cc2C1", "note": "[Compound 57, 1′-{2-[(2-acetyl-2,3-dihydro-1H-isoindol-5-yl)oxy]ethyl}-5-chloro-1,2-dihydrospiro[indole-3,4′-piperidin]-2-one]", "AC50": 0.706}
    ]}
  ]
}
